The nature of series [1]: Stability of peptide in rat plasma (RP-HPLC). It counts as in vitro ADME. As to the method: The stability of KS-58 in rat plasma was also evaluated. The peptides were incubated with rat plasma at 37 °C for different time periods (0 and 24 h), and the remaining amount of peptide was then determined using RP-HPLC. By comparing the peak area of the peptide, the remaining amount of peptide after plasma incubation was roughly estimated.
Each peptide (10 mM, 1 μL) was incubated with rat plasma (20 μL) prepared in house. […] The mixture was stored for 10 min at 4 °C and centrifuged at 15,000 rpm for 10 min at 4 °C. The supernatant was recovered and was directly supplied to RP-HPLC to determine the remaining amount of unmodified peptides in the sample.

The test system of series [2] is PANC-1 orthotopic xenografts. Put plainly: Anti-cancer efficacy in PANC-1 orthotopic xenografts. It counts as in vivo, mice. Particulars: 40 mg/kg iv once every 2 days for 4 weeks. How it is done: To establish orthotropic xenograft tumor models, 2.5 × 10^6 cells/50 µL of PANC-1 cells were injected into the pancreas of BALB/cAJcl-nu/nu male mice (8 weeks old; CLEA Japan, Inc.). KS-58 was dissolved in DMSO and then tenfold diluted by saline. The peptide solution was then injected intravenously to the mice bearing tumors once every 2 days for 4 weeks (40 mg/kg, n = 7). Organ weights of the pancreas, liver, and kidney were measured.

For series [3], the system named is PANC-1 cells. The experiment in a line: Cell proliferation assay (CellTiter-Glo, 72 h). It counts as cell-based, human. Particulars: PANC-1 (G12D), peptide 30 µM, n = 4, ± SEM. As to the method: (§1) A427 (ATCC HTB-53), A549 (ATCC CCL-185), H1975 (ATCC CRL-5908), PANC-1 (ATCC CRL-1469), MIA PaCa-2 (ATCC CRL-1420), and Capan-1 (ATCC HTB-79) cells were purchased from ATCC, and each cell was cultured in medium supplemented with 10% fetal bovine serum (FBS), according to the protocol recommended by the manufacture.
(§2) The effect of peptides on cell proliferation of A427, A549, H1975, PANC-1, MIA PaCa-2, and Capan-1 cells was determined by 72 h exposure to peptides. Cells were seeded at 1000 cells/well in 96-well tissue culture plates in each growth media and allowed to adhere overnight on day 0. Peptides were solved in DMSO and then diluted with each growth media for a constant final DMSO concentration of 0.5%. Media in the wells were removed and replaced with diluted peptide solutions, and cells were incubated for 3 days. During the incubation, medium containing the peptides was replaced every day. Relative cell numbers were estimated using CellTiter-Glo assay kit (G7570, Promega, WI, USA) according to the manufacturer’s instructions. Luminescence was detected using SpectraMax i3x (MOLECULAR DEVICES, CA, USA). Cell proliferation rate (%) was calculated based on cell numbers at day 0 as 0% and at day 3 without peptide treatment as 100%.

Series [4] concerns MIA PaCa-2 cells. Put plainly: Cell proliferation assay (CellTiter-Glo, 72 h). Format: cell-based, human. As to conditions: MIA PaCa-2 (G12C), peptide 30 µM, n = 4, ± SEM. As to the method:
as §1, §2
In general terms: Cellular ATP, detected with luciferase, serves as a proxy for viable cell number.

For series [5], the system named is A549 cells. The experiment in a line: Cell proliferation assay (CellTiter-Glo, 72 h). Format: cell-based, human. Particulars: A549 (G12S), peptide 30 µM, n = 4, ± SEM. As to the method:
as §1, §2

For series [6], the system named is Capan-1 cells. The experiment in a line: Cell proliferation assay (CellTiter-Glo, 72 h). Format: cell-based, human. As to conditions: Capan-1 (G12V), peptide 30 µM, n = 4, ± SEM. How it is done: as §1, §2
Series [7] relates to H1975 cells. Put plainly: Cell proliferation assay (CellTiter-Glo, 72 h). As to conditions: H1975 (WT), peptide 30 µM, n = 4, ± SEM. It counts as cell-based, human. As to the method: as §1, §2
The test system of series [8] is A427 cells. Put plainly: Cell proliferation assay (CellTiter-Glo, 72 h). It counts as cell-based, human. As to conditions: A427 (G12D), peptide 30 µM, n = 4, ± SEM. As to the method: as §1, §2
The nature of series [9]: Pharmacokinetics study in mice, intravenous injection. It counts as in vivo. How it is done: Prior to the in vivo anti-cancer activity evaluation, a preliminary pharmacokinetics (PK) study was completed using a 20 mg/kg intravenous injection. Plasma was collected at 15 min, 1 h, 4 h, and 24 h after injection. […] KS-58 was detected in plasma 15 min and 1 h after intravenous injection, but it was not detected at 4 h and 24 h, due to the limited detection ability of RP-HPLC. The concentration change indicated a two-compartment model (Fig. 5A).
Animal experiments were carried out at UNITECH Co. Ltd. (Chiba, Japan) in accordance with the guidelines of the Animal Care and Use Committee of UNITECH (approval No. AGR IMF-190807A-30). KS-58 was dissolved in DMSO and then tenfold diluted by saline. The peptide solution was injected intravenously to Slc:ICR male mice (8 weeks old; Japan SLC, Inc.) (20 mg/kg, n = 3). Blood samples were collected from the mice at 15 min, 1 h, 4 h, and 24 h after injection. The blood was chilled on ice and then centrifuged at 12,000 rpm for 3 min at 4 °C. Plasma protein was precipitated by acetonitrile, and the supernatant was recovered. The remaining peptides in prepared samples were analyzed by RP-HPLC as described above.

The subject of series [10] is PANC-1 subcutaneous xenografts. The experiment in a line: Anti-cancer efficacy in PANC-1 subcutaneous xenografts. Format: in vivo, mice. As to conditions: 40 mg/kg iv once every 2 days for 4 weeks. How it is done:
Animal experiments were carried out at UNITECH Co. Ltd. in accordance with the guidelines of the Animal Care and Use Committee of UNITECH (approval No. AGR IMF-190807A-31, -33, AGR IMF-20615A-30). To establish subcutaneous xenograft tumor models, 1 × 10^7 cells/150 µL of PANC-1 cells were subcutaneously injected into the flank of Crlj:SHO-Prkdc^scidHr^hr female mice (7 weeks old; Charles River Laboratories). KS-58 was dissolved in DMSO and then tenfold diluted by saline. The peptide solution was injected intravenously to the mice bearing tumors once every 2 days for 4 weeks (40 mg/kg, n = 10). The tumor growth rate was recorded every 3 days by measuring the major and minor axes of the tumors formed with a digital caliper. Measurements were transformed into tumor volume using the formula: tumor volume (mm^3) = major axis × minor axis^2 × 0.5.

Setting [11] is: rat plasma, incubation time 0 h.

Where “and” joins values, the source holds several entries; their conditions need not be identical. Equal values may be shown once. Starred links: 1 amine or outer side, 2 acyl side, 3 side chain; linkers in the order of their positions; H or OH if unused. Positions of bridges follow the written chain, without caps; N, C: chain ends. Non-standard residues stand in square brackets, D forms with d. Residues, ends and D or L forms follow the SMILES beside them. Phe(4-F) = N[C@@H](Cc1ccc(F)cc1)C(=O)O; X1 = CCCCCCC[C@H](N[*:1])C(=O)[*:2]; Nle = CCCC[C@H](N)C(=O)O; X2 = C(C[*:1])C[*:2]; βAla = NCCC(=O)O

In the case of `CCCCCCC[C@@H]1NC(=O)[C@@H]2CSCCCSC[C@@H](NC(=O)[C@H](Cc3c[nH]c4ccccc34)NC(=O)[C@@H]3CCCN3C(=O)[C@H](CC(=O)O)NC(=O)[C@H](Cc3ccc(F)cc3)NC(=O)[C@H](CO)NC1=O)C(=O)NCCC(=O)N1CCC[C@H]1C(=O)N[C@@H](CCCC)C(=O)N2` [KS-58, c[βAla-Pro-Nle-c(Cys-Anon-Ser-4fF-Asp-Pro-Trp-^DCys)]] (cyclo([βAla]P[Nle]C[X1]S[Phe(4-F)]DPW[dC]); linker 4-11 via X2), the Peak area value in series [1] (Input (NT, no-serum treatment)) was 491,842; in series [1] (rat plasma, 37 °C, incubation time 24 h), 467,142; in series [1] (setting [11]), 473,575. Besides, in [1] (input control without serum treatment, Input (NT, no-serum treatment), read-out: Recovery rate (%)), the recovery was determined as 100%. Further, the “Stability in rat plasma (in words)” value in series [1] (rat plasma, 37 °C, 24 h) was “remained intact for up to at least 24 h”. In series [1] (rat plasma, 37 °C, incubation time 24 h, read-out: Recovery rate (%)), the recovery at 24 h, 0.476 mM was 95%. In addition, the remaining at 24 h, 0.476 mM in series [1] (rat plasma, 37 °C, incubation time 24 h, read-out: Residual rate (%)) was 98.6%. Moreover, the “Residual rate (%)” value in [1] (setting [11]) was 100%. In addition, the recovery at 0 h, 0.476 mM in [1] (rat plasma, incubation time 0 h, read-out: Recovery rate (%)) was 96.3%. Moreover, the “Adverse side effects (loss of body weight, organ swelling of liver and kidney)” value in series [2] (both xenografts) was “without any adverse side effects”. Besides, the “cell growth of PANC-1 (pancreas weight; Sham = 0%, vehicle = 100%)” value in [2] (orthotopic xenograft) is recorded as 65%. Besides, the “Cell proliferation (%)” value in [3] was 50.1% and 50.1 ± 4.1%; in series [4], 86.8 ± 2.3%; in series [5], 81.3 ± 1.5%; in series [6], 94.9 ± 2.2%; in [7], 92.7 ± 0.3%; in series [8], 21.1% and 21.1 ± 5.5%. Besides, the “Detection in plasma by RP-HPLC” value is on record as “detected” in series [9] (20 mg/kg iv, 15 min and 1 h after injection); “not detected” in series [9] (20 mg/kg iv, 4 h and 24 h after injection). In addition, the “peptide concentration in the blood” value in series [9] (20 mg/kg iv, for at least 1 h after the injection) is listed as “more than 30 μM”. Moreover, in series [9] (male, Slc:ICR, mouse, plasma, 20 mg/kg intravenous injection, n = 3, read-out: blood circulation half-life (t1/2) in the elimination phase), the half-life stood at 1 ± 0.0317 h. Besides, the “Tumor growth (tumor volume) in subcutaneous xenografts” value in series [10] was “significant tumor growth suppression”.

(Values after article PMC7730438, “Generation of KS-58 as the first K-Ras(G12D)-inhibitory peptide presenting anti-cancer activity in vivo” (Scientific Reports, 2020).)
